Test results: patent US20070207980A1, “Chp-gemcitabine Combination Agents And Their Use As Anti-Tumor Agents” (priority 2003, published 2007)

Tests used:
PANC-1 cells = assay: Effect of combined agents releasing gemcitabine first (Table 2); details: no gemcitabine first
T47D = assay: Cell line screening of CHP anti-proliferation activity (chemosensitivity MTT assay); type: cell-based; details: Breast tissue
Method: (§1) Unless otherwise stated, cell lines from the American Type Culture Collection (ATCC, Rockville, Md.) were used and cultured to confluence in a monolayer in RPMI-1640 bicarbonate medium (Seromed, Berlin, Germany) in an incubator ([…], 37° C.). The cells were examined for mycoplasma contaminations. The medium included 10% heat-inactivated fetal calf serum (Seromed) and 4 mM glutamine. The cells were cultured and passaged according to standard procedures (0.03% trypsin with 0.02% EDTA, 3 times a week) . The cell number was determined using a TOA Sysmex micro-cell counter (TOA, Tokyo, Japan).

Capanl = assay: as above; type: cell-based; details: Pancreas cell lines
Method: as §1

MIAPaCa2 = assay: as above; type: cell-based; details: Pancreas cell lines
Method: as §1

BxPC3 [1] = assay: as above; type: cell-based; details: Pancreas cell lines
Method: as §1

CR02 = assay: as above; type: cell-based; details: Carcinoids
Method: as §1

B607 = assay: as above; type: cell-based; details: Melanoma
Method: as §1

ASPC1 = assay: as above; type: cell-based; details: Pancreas cell lines
Method: as §1

Fib2 (PPH) = assay: as above; type: cell-based; details: Fibroblasts
Method: as §1

DLD1 = assay: as above; type: cell-based; details: Colon cell lines
Method: as §1

Me128 = assay: as above; type: cell-based; details: Melanoma
Method: as §1

ACHN = assay: as above; type: cell-based; details: Renal cell lines
Method: as §1

Fib3 (PPH) = assay: as above; type: cell-based; details: Fibroblasts
Method: as §1

HOS = assay: as above; type: cell-based; details: Osteosarcoma tissue
Method: as §1

K562 = assay: as above; type: cell-based; details: Leukemia cells
Method: as §1

PANC1 = assay: as above; type: cell-based; details: Pancreas cell lines
Method: as §1

JVSO = assay: as above; type: cell-based; details: Melanoma
Method: as §1

SW620(Ccl227) = assay: as above; type: cell-based; details: Colon cell lines
Method: as §1

Colo320DM = assay: as above; type: cell-based; details: Colon cell lines
Method: as §1

Colo205 = assay: as above; type: cell-based; details: Colon cell lines
Method: as §1

MCF-7 = assay: as above; type: cell-based; details: Breast tissue
Method: as §1

A518 = assay: as above; type: cell-based; details: Melanoma
Method: as §1

HCT-15 = assay: as above; type: cell-based; details: Colon cell lines
Method: as §1

SW480 (Ccl228) = assay: as above; type: cell-based; details: Colon cell lines
Method: as §1

PC3 = assay: as above; type: cell-based; details: Prostate tissue
Method: as §1

A498 = assay: as above; type: cell-based; details: Renal cell lines
Method: as §1

Calc22 = assay: as above; type: cell-based; details: Osteoblasts
Method: as §1

CR01 = assay: as above; type: cell-based; details: Carcinoids
Method: as §1

WI38 = assay: as above; type: cell-based; details: Fibroblasts
Method: as §1

MDA-MBA231 = assay: as above; type: cell-based; details: Breast tissue
Method: as §1

HT29 = assay: as above; type: cell-based; details: Colon cell lines
Method: as §1

BxPC3 [2] = assay: Effect of combined agents releasing gemcitabine first (Table 2); details: no gemcitabine first

Q: For `O=C(O)[C@@H]1C[C@@H](O)CN1` (relative stereo) [CHP, cis-hydroxyproline], which PANC-1 control (PANC-1 cells; CHP 3 μg/ml) is on record?
A: 98.8 ± 4.0

Q: And the PANC-1 control (PANC-1 cells; CHP 6.1 μg/ml)?
A: 96.0 ± 6.0

Q: And the PANC-1 control (PANC-1 cells; CHP 12.5 μg/ml)?
A: 90.8 ± 4.1

Q: What about the PANC-1 control (PANC-1 cells; CHP 25 μg/ml) of the same compound?
A: 95.9 ± 5.1

Q: What about the PANC-1 control (PANC-1 cells; CHP 50 μg/ml) of the same compound?
A: 94.8 ± 6.4

Q: And the PANC-1 control (PANC-1 cells; CHP 100 μg/ml)?
A: 95.1 ± 2.3

Q: What about the “Reaction (CHP anti-proliferation activity)” value (“Reaction” for short) (T47D) of the same compound?
A: −34%

Q: And the “Reaction” value (Capanl)?
A: −66%

Q: What about the “Reaction” value (MIAPaCa2) of the same compound?
A: −45.7%

Q: And the “Reaction” value (BxPC3 [1])?
A: −41%

Q: And the “Reaction” value (CR02)?
A: −13%

Q: And the “Reaction” value (B607)?
A: −12%

Q: And the “Reaction” value (ASPC1)?
A: −42%

Q: And the “Reaction” value (Fib2 (PPH))?
A: resistant

Q: What about the “Reaction” value (DLD1) of the same compound?
A: −19.8%

Q: What about the “Reaction” value (Me128) of the same compound?
A: resistant

Q: What about the “Reaction” value (ACHN) of the same compound?
A: resistant

Q: And the “Reaction” value (Fib3 (PPH))?
A: −14%

Q: And the “Reaction” value (HOS)?
A: −68%

Q: What about the “Reaction” value (K562) of the same compound?
A: −11%

Q: What about the “Reaction” value (PANC1) of the same compound?
A: −54%

Q: And the “Reaction” value (JVSO)?
A: −15%

Q: And the “Reaction” value (SW620(Ccl227))?
A: −66.4%

Q: What about the “Reaction” value (Colo320DM) of the same compound?
A: −11%

Q: And the “Reaction” value (Colo205)?
A: −66%

Q: What about the “Reaction” value (MCF-7) of the same compound?
A: −43%

Q: What about the “Reaction” value (A518) of the same compound?
A: resistant

Q: What about the “Reaction” value (HCT-15) of the same compound?
A: −10%

Q: And the “Reaction” value (SW480 (Ccl228))?
A: −58%

Q: What about the “Reaction” value (PC3) of the same compound?
A: resistant

Q: And the “Reaction” value (A498)?
A: −6%

Q: And the “Reaction” value (Calc22)?
A: +8%

Q: What about the “Reaction” value (CR01) of the same compound?
A: −35%

Q: And the “Reaction” value (WI38)?
A: resistant

Q: And the “Reaction” value (MDA-MBA231)?
A: resistant

Q: What about the “Reaction” value (HT29) of the same compound?
A: −48%

Q: And the BxPC3 control (BxPC3 [2]; CHP 6.1 μg/ml)?
A: 103.5 ± 2.6

Q: What about the BxPC3 control (BxPC3 [2]; CHP 12.5 μg/ml) of the same compound?
A: 102.6 ± 1.7

Q: What about the BxPC3 control (BxPC3 [2]; CHP 25 μg/ml) of the same compound?
A: 99.9 ± 3.1

Q: And the BxPC3 control (BxPC3 [2]; CHP 50 μg/ml)?
A: 99.8 ± 4.3

Q: And the BxPC3 control (BxPC3 [2]; CHP 100 μg/ml)?
A: 105.2 ± 5.4
